In paper PMC11050599, “Novel Tetracyclic Azaphenothiazines with the Quinoline Ring as New Anticancer and Antibacterial Derivatives of Chlorpromazine” (International Journal of Molecular Sciences, 2024):
In brackets after ≈: the same amount, converted by molar mass. Read-outs that look alike come from different tables or passages of the source.

Legend:
A549 cells = test: Annexin V-FITC/PI apoptosis flow cytometry, A549; type: cell-based, human; conditions: representative dot plot, Figure 4A, IC50, 72 h
Procedure: (§1) To analyze the number of cells in early apoptosis, late apoptosis, or necrosis, A549, MiaPaca-2, and HCT-116 cell lines were cultured in 6-well plates with a seeding density of 1 × 10^5 cells per well. These cells were then treated with selected compounds (4, 5, and 8) at their respective IC50 concentrations and incubated for 72 h. Subsequently, a commercially available kit, the FITC: Annexin V Apoptosis Detection Kit I from BD Biosciences Pharmingen in San Jose, CA, USA, was utilized to assess apoptosis. After 72 h the cells were harvested, washed, and labeled with Annexin V-FITC and propidium iodide (PI) following the manufacturer’s protocol (Becton Dickinson), as previously described. The stained cells were analyzed by flow cytometry. The cells were identified as early apoptotic (Annexin V+/PI−) or late apoptotic/necrotic (Annexin V+/PI+).

PC3 (prostate cancer) = test: MTT assay, PC3 cells; type: cell-based, human; conditions: for IC50: Homo sapiens, read-out: IC50 PC3; for SI PC3: SI = IC50 for normal cell line (HaCaT)/IC50 cancer cell line
Procedure: (§2) The human cell lines, such as A549 (lung cancer), MDA-MB-231 (breast cancer), MiaPaca-2 (pancreatic cancer), PC3 (metastatic prostate cancer), HCT-116 (colon carcinoma), and HaCaT (immortalized keratinocytes), were sourced from the American Type Culture Collection (ATCC) in Rockville, USA. Culturing conditions varied as follows: HCT116 cells were cultured in MEM (ThermoSci, Waltham, MA, USA), A549, MDA-MB-231, MiaPaca, HaCaT cells in DMEM High Glucose and PC3 cells were cultured in RPMI (Biowest SAS, Nuaillé, France). The growth medium consisted of 10% fetal bovine serum (FBS, Sigma-Aldrich, St. Louis, MO, USA), 20 mM HEPES (Biowest, Nuaillé, France), and antibiotics (100 U/mL of penicillin and 100 μg/mL of streptomycin) from Gibco, Grand Island, NY, USA. […] These compounds were added to 96-well plates containing study cells (1 × 10^4 cells per well) and incubated for 72 h. […] Cell absorbance results were incorporated into the formula for calculating the relative MTT level (%), enabling the assessment of cell viability following exposure to the test compounds. The cell viability percentage represents the MTT reduction in cells treated with the test compounds compared to the control sample, where only the medium was added to the cells.

HCT116 (colon cancer) = test: MTT assay, HCT116 cells; type: cell-based, human; conditions: for IC50: Homo sapiens, read-out: IC50 HCT116; for SI HCT116: SI = IC50 for normal cell line (HaCaT)/IC50 cancer cell line
Procedure: as §2

HCT116 cells [1] = test: Annexin V-FITC/PI apoptosis flow cytometry, HCT116; type: cell-based, human; conditions: representative dot plot, Figure 4C, IC50, 72 h
Procedure: as §1

HCT116 cells [2] = test: Cell cycle analysis by flow cytometry, HCT116; type: cell-based, human; conditions: IC50, 24 h, compared to the control
Procedure: In brief, cells were seeded at a density of 1 × 10^5 cells/well on a six-well plate and allowed to adhere for 24 h. […] Both population cells (the attached and detached) were collected and centrifuged at 400× g for 5 min at 4 °C. After centrifugation, the cells were washed twice with 0.9% NaCl and subsequently fixed in 500 μL of 70 % cold ethanol overnight.
Before analysis, the fixed cells underwent another centrifugation step at 850× g for 5 min at 4 °C and were washed with PBS. Following the washes, the cells were incubated with 50 μL of RNase (100 μg/mL) and 200 μL of propidium iodide (PI) (50 μg/mL) at 37 °C for 30 min in the dark. Finally, 100 μL of PBS was added to each sample. Flow cytometry (Becton Dickinson FACS Verse, Franklin Lakes, NJ, USA) was then used to analyze the cell cycle distribution, identifying cells in various stages including sub-G1, G0/G1, S, and G2/M phases. Each assay was performed in quadruplicate.

[3] = system: MDA-MB-231 (breast cancer); test: MTT assay, MDA-MB-231 cells; type: cell-based, human; conditions: for IC50: Homo sapiens, read-out: IC50 MDA; for SI MDA: SI = IC50 for normal cell line (HaCaT)/IC50 cancer cell line
Procedure: as §2

A549 (lung cancer) = test: MTT assay, A549 cells; type: cell-based, human; conditions: Homo sapiens, read-out: IC50 A549
Procedure: as §2

[4] = system: HaCaT (immortalized human keratinocytes); test: MTT assay, HaCaT normal cells; type: cell-based; conditions: Homo sapiens, HaCaT, 72 h, read-out: IC50 HaCaT (Table 3)
Procedure: as §2

[5] = system: S. epidermidis ATCC 35984; test: MIC broth microdilution; type: cell-based
Text: (§3) To evaluate the antibacterial effectiveness of chloroquinobenzothiazine derivatives, various bacterial strains from international microbe collections such as the American Type Culture Collection (ATCC) and the National Collection of Type Culture (NCTC) were examined, alongside a panel of clinical rods. This included two Gram-negative organisms, E. coli ATCC 25922 and P. aeruginosa ATCC 15442, and a series of six Gram-positive strains: S. aureus NCTC 4163; S. aureus ATCC 29213, 25923, and 6538; and S. epidermidis ATCC 12228 and 35984. […] The MIC was determined using the two-fold serial broth microdilution method in 96-well microtitration plates containing Mueller-Hinton II broth medium (Becton Dickinson, Franklin Lakes, NJ, USA). The final inoculum for all tested bacteria was adjusted to […] (colony-forming units per milliliter). The stock solution of the tested compounds was prepared in dimethyl sulfoxide (DMSO) and diluted to a maximum of 1% solvent content with a sterile medium.

S. aureus NCTC 4163 = test: MIC broth microdilution; type: cell-based; conditions: Staphylococcus aureus, NCTC4163, 19 h, read-out: MIC S. aureus NCTC 4163
Text: as §3

[6] = system: S. epidermidis ATCC 12228; test: MIC broth microdilution; type: cell-based; conditions: Staphylococcus epidermidis, ATCC12228, 19 h, read-out: MIC S. epidermidis ATCC 12228
Text: as §3

S. aureus ATCC 29213 = test: MIC broth microdilution; type: cell-based; conditions: Staphylococcus aureus, ATCC29213, 19 h, read-out: MIC S. aureus ATCC 29213
Text: as §3

P. aeruginosa ATCC 15442 = test: MIC broth microdilution; type: cell-based; conditions: Pseudomonas aeruginosa, ATCC15442, 19 h, read-out: MIC P. aeruginosa ATCC 15442
Text: as §3

S. aureus ATCC 6538 = test: MIC broth microdilution; type: cell-based; conditions: Staphylococcus aureus, ATCC6538, 19 h, read-out: MIC S. aureus ATCC 6538
Text: as §3

E. coli ATCC 25922 = test: MIC broth microdilution; type: cell-based; conditions: Escherichia coli, ATCC25922, 19 h, read-out: MIC E. coli ATCC 25922
Text: as §3

S. aureus ATCC 25923 = test: MIC broth microdilution; type: cell-based; conditions: Staphylococcus aureus, ATCC25923, 19 h, read-out: MIC S. aureus ATCC 25923
Text: as §3

[7] = system: MiaPaCa-2 (pancreas cancer); test: MTT assay, MiaPaCa-2 cells; type: cell-based, human; conditions: for IC50: Homo sapiens, read-out: IC50 MiaPaCa-2
Procedure: as §2

cancer cell lines = test: MTT assay, summary over several cell lines; type: cell-based, human; conditions: A549 and MDA-MB-231 versus HaCaT
Procedure: as §2

Q: For O=C(NCCCl)NCCCN1c2cc(Cl)ccc2Sc2cc3ccccc3nc21 [Compound 20, 1-(3-(8-Chloroquino[3,2-b]benzo[1,4]thiazin-6-yl)propyl)-3-(2-chloroethyl)urea], which “A549: Alive” value (A549 cells) is on record?
A: The value was 88.24%.

Q: And the “A549: Early Apoptotic” value (A549 cells)?
A: Its value is 0.13%.

Q: What about the “A549: Necrotic” value (A549 cells) of the same compound?
A: The value was 10.74%.

Q: And the “A549: Necrotic/Late Apoptotic” value (A549 cells)?
A: The value was 0.89%.

Q: What about the IC50 (PC3 (prostate cancer); PC-3, 72 h) of the same compound?
A: The IC50 was 34.8 ± 9.8 µM.

Q: What about the “SI PC3” value (PC3 (prostate cancer)) of the same compound?
A: Its value is 2.8.

Q: And the IC50 (HCT116 (colon cancer); HCT-116, 72 h)?
A: Its IC50 is 10.4 ± 1.6 µM.

Q: And the “SI HCT116” value (HCT116 (colon cancer))?
A: Its value is 8.8.

Q: What about the “HCT-116: Alive” value (HCT116 cells [1]) of the same compound?
A: Its value is 83.79%.

Q: What about the “HCT-116: Early Apoptotic” value (HCT116 cells [1]) of the same compound?
A: The value was 7.24%.

Q: And the “HCT-116: Necrotic” value (HCT116 cells [1])?
A: Its value is 4.80%.

Q: What about the “HCT-116: Necrotic/Late Apoptotic” value (HCT116 cells [1]) of the same compound?
A: Its value is 4.17%.

Q: What about the “increase in the cell amount at the sub-G1 phase, HCT116” value (HCT116 cells [2]) of the same compound?
A: Its value is 3 fold.

Q: And the IC50 ([3]; MDA-MB-231, 72 h)?
A: Its IC50 is 48.6 ± 7.3 µM.

Q: What about the “SI MDA” value [3] of the same compound?
A: The value was 2.0.

Q: And the IC50 (A549 (lung cancer); A549, 72 h)?
A: Its IC50 is 9.3 ± 1.2 µM.

Q: And the IC50 [4]?
A: Its IC50 is over 100000 nM.

Q: What about the “MIC S. epidermidis ATCC 35984” value ([5]; 19 h, 35 °C) of the same compound?
A: The value was 4 µg/mL (≈ 8.94 µM).

Q: And the MIC ([5]; Staphylococcus epidermidis, ATCC35984, 19 h, read-out: MIC S. epidermidis ATCC 35984)?
A: The MIC was 4 µg/mL (≈ 8.94 µM).

Q: What about the MIC (S. aureus NCTC 4163) of the same compound?
A: The MIC was 8 µg/mL (≈ 17.9 µM).

Q: What about the MIC [6] of the same compound?
A: Its MIC is 8 µg/mL (≈ 17.9 µM).

Q: What about the MIC (S. aureus ATCC 29213) of the same compound?
A: Its MIC is 8 µg/mL (≈ 17.9 µM).

Q: And the MIC (P. aeruginosa ATCC 15442)?
A: Its MIC is over 256 µg/mL.

Q: And the MIC (S. aureus ATCC 6538)?
A: Its MIC is 8 µg/mL (≈ 17.9 µM).

Q: What about the MIC (E. coli ATCC 25922) of the same compound?
A: Its MIC is over 256 µg/mL.

Q: And the MIC (S. aureus ATCC 25923)?
A: Its MIC is 8 µg/mL (≈ 17.9 µM).

Q: And the IC50 ([7]; MIA PaCa-2, 72 h)?
A: The IC50 was 23.2 ± 2.7 µM.

Q: What about the “SI MiaPaCa-2” value ([7]; SI = IC50 for normal cell line (HaCaT)/IC50 cancer cell line) of the same compound?
A: The value was 4.3.

Q: Which IC50 (PC3 (prostate cancer); PC-3, MTT, 72 h) does the source give for COc1cccc2c1C(=O)c1c(O)c3c(c(O)c1C2=O)C[C@@](O)(C(=O)CO)C[C@@H]3O[C@H]1C[C@H](N)[C@H](O)[C@H](C)O1 [DX, doxorubicin, reference compound] here?
A: Its IC50 is 0.8 ± 0.1 µM.

Q: And the “SI PC3” value (PC3 (prostate cancer))?
A: The value was 0.15.

Q: And the IC50 (HCT116 (colon cancer); HCT-116, MTT, 72 h)?
A: Its IC50 is 0.59 ± 0.02 µM.

Q: What about the “SI HCT116” value (HCT116 (colon cancer)) of the same compound?
A: Its value is 0.5.

Q: And the IC50 ([3]; MDA-MB-231, MTT, 72 h, MDA-MB231)?
A: Its IC50 is 0.8 ± 0.1 µM.

Q: And the “SI MDA” value [3]?
A: Its value is 0.15.

Q: What about the IC50 (A549 (lung cancer); A549, MTT, 72 h, mean SD) of the same compound?
A: Its IC50 is 0.6 ± 0.2 µM.

Q: And the IC50 ([4]; MTT, normal cells)?
A: Its IC50 is 300 ± 100 nM.

Q: And the “selectivity index (SI) range” value (cancer cell lines)?
A: Its value is 0.14–0.15.

Q: What about the IC50 ([7]; MIA PaCa-2, MTT, 72 h) of the same compound?
A: The IC50 was 0.6 ± 0.2 µM.
